ChEMBL document CHEMBL4346705, “(±)-trans-Dihydronarciclasine and (±)-trans-dihydrolycoricidine analogues modified in their ring A: Evaluation of their anticancer activity and a SAR study” (2019)

What was measured:
Type in all cases: functional
ACHN = experiment: Antiproliferative activity against human ACHN cells assessed as cell viability at 10^-5 M incubated for 48 hrs by sulforhodamine B assay relative to control; conditions: read-out: Activity
SF-268 = experiment: Antiproliferative activity against human SF268 cells assessed as cell viability at 10^-5 M incubated for 48 hrs by sulforhodamine B assay relative to control; conditions: SF-268, 48 h, read-out: Activity
SK-MEL-2 = experiment: Antiproliferative activity against human SK-MEL-2 cells assessed as cell viability at 10^-5 M incubated for 48 hrs by sulforhodamine B assay relative to control; conditions: SK-MEL-2, 48 h, read-out: Activity
OVCAR-3 = experiment: Antiproliferative activity against human OVCAR3 cells assessed as cell viability at 10^-5 M incubated for 48 hrs by sulforhodamine B assay relative to control; conditions: OVCAR-3, 48 h, read-out: Activity
DU-145 = experiment: Antiproliferative activity against human DU145 cells assessed as cell viability at 10^-5 M incubated for 48 hrs by sulforhodamine B assay relative to control; conditions: DU-145, 48 h, read-out: Activity
TK-10 = experiment: Antiproliferative activity against human TK10 cells assessed as cell viability at 10^-5 M incubated for 48 hrs by sulforhodamine B assay relative to control; conditions: TK-10, 48 h, read-out: Activity
NCI-H226 = experiment: Antiproliferative activity against human NCI-H226 cells assessed as cell viability at 10^-5 M incubated for 48 hrs by sulforhodamine B assay relative to control; conditions: NCI-H226, 48 h, read-out: Activity
OVCAR-8 = experiment: Antiproliferative activity against human OVCAR8 cells assessed as cell viability at 10^-5 M incubated for 48 hrs by sulforhodamine B assay relative to control; conditions: OVCAR-8, 48 h, read-out: Activity
NCI/ADR-RES = experiment: Antiproliferative activity against human NCI-ADR-RES cells assessed as cell viability at 10^-5 M incubated for 48 hrs by sulforhodamine B assay relative to control; conditions: read-out: Activity
SNB-75 = experiment: Antiproliferative activity against human SNB75 cells assessed as cell viability at 10^-5 M incubated for 48 hrs by sulforhodamine B assay relative to control; conditions: SNB-75, 48 h, read-out: Activity
M14 = experiment: Antiproliferative activity against human M14 cells assessed as cell viability at 10^-5 M incubated for 48 hrs by sulforhodamine B assay relative to control; conditions: M14, 48 h, read-out: Activity
IGROV-1 = experiment: Antiproliferative activity against human IGROV1 cells assessed as cell viability at 10^-5 M incubated for 48 hrs by sulforhodamine B assay relative to control; conditions: IGROV-1, 48 h, read-out: Activity
RPMI-8226 = experiment: Antiproliferative activity against human RPMI8226 cells assessed as cell viability at 10^-5 M incubated for 48 hrs by sulforhodamine B assay relative to control; conditions: RPMI-8226, 48 h, read-out: Activity
Hs-578T = experiment: Antiproliferative activity against human Hs 578T cells assessed as cell viability at 10^-5 M incubated for 48 hrs by sulforhodamine B assay relative to control; conditions: read-out: Activity
MCF7 = experiment: Antiproliferative activity against human MCF7 cells assessed as cell viability at 10^-5 M incubated for 48 hrs by sulforhodamine B assay relative to control; conditions: MCF7, 48 h, read-out: Activity
EKVX = experiment: Antiproliferative activity against human EKVX cells assessed as cell viability at 10^-5 M incubated for 48 hrs by sulforhodamine B assay relative to control; conditions: read-out: Activity
SW-620 = experiment: Antiproliferative activity against human SW620 cells assessed as cell viability at 10^-5 M incubated for 48 hrs by sulforhodamine B assay relative to control; conditions: SW-620, 48 h, read-out: Activity
HL-60(TB) = experiment: Antiproliferative activity against human HL-60(TB) cells assessed as cell viability at 10^-5 M incubated for 48 hrs by sulforhodamine B assay relative to control; conditions: HL-60, 48 h, read-out: Activity
PC-3 = experiment: Antiproliferative activity against human PC3 cells assessed as cell viability at 10^-5 M incubated for 48 hrs by sulforhodamine B assay relative to control; conditions: PC-3, 48 h, read-out: Activity
NCI-H522 = experiment: Antiproliferative activity against human NCI-H522 cells assessed as cell viability at 10^-5 M incubated for 48 hrs by sulforhodamine B assay relative to control; conditions: NCI-H522, 48 h, read-out: Activity
MDA-MB-435 = experiment: Antiproliferative activity against human MDA-MB-435 cells assessed as cell viability at 10^-5 M incubated for 48 hrs by sulforhodamine B assay relative to control; conditions: MDA-MB-435, 48 h, read-out: Activity
SR = experiment: Antiproliferative activity against human SR cells assessed as cell viability at 10^-5 M incubated for 48 hrs by sulforhodamine B assay relative to control; conditions: read-out: Activity
SF-295 = experiment: Antiproliferative activity against human SF295 cells assessed as cell viability at 10^-5 M incubated for 48 hrs by sulforhodamine B assay relative to control; conditions: SF-295, 48 h, read-out: Activity
SN12C = experiment: Antiproliferative activity against human SN12C cells assessed as cell viability at 10^-5 M incubated for 48 hrs by sulforhodamine B assay relative to control; conditions: read-out: Activity
MOLT-4 = experiment: Antiproliferative activity against human MOLT4 cells assessed as cell viability at 10^-5 M incubated for 48 hrs by sulforhodamine B assay relative to control; conditions: MOLT-4, 48 h, read-out: Activity
HCC 2998 = experiment: Antiproliferative activity against human HCC2998 cells assessed as cell viability at 10^-5 M incubated for 48 hrs by sulforhodamine B assay relative to control; conditions: HCC 2998, 48 h, read-out: Activity
T47D = experiment: Antiproliferative activity against human T47D cells assessed as cell viability at 10^-5 M incubated for 48 hrs by sulforhodamine B assay relative to control; conditions: read-out: Activity
UO-31 = experiment: Antiproliferative activity against human UO31 cells assessed as cell viability at 10^-5 M incubated for 48 hrs by sulforhodamine B assay relative to control; conditions: UO-31, 48 h, read-out: Activity
KM12 = experiment: Antiproliferative activity against human KM12 cells assessed as cell viability at 10^-5 M incubated for 48 hrs by sulforhodamine B assay relative to control; conditions: KM12, 48 h, read-out: Activity
NCI-H322M = experiment: Antiproliferative activity against human NCI-H322M cells assessed as cell viability at 10^-5 M incubated for 48 hrs by sulforhodamine B assay relative to control; conditions: read-out: Activity
CCRF-CEM = experiment: Antiproliferative activity against human CCRF-CEM cells assessed as cell viability at 10^-5 M incubated for 48 hrs by sulforhodamine B assay relative to control; conditions: read-out: Activity
SF-539 = experiment: Antiproliferative activity against human SF539 cells assessed as cell viability at 10^-5 M incubated for 48 hrs by sulforhodamine B assay relative to control; conditions: SF-539, 48 h, read-out: Activity
HOP-62 = experiment: Antiproliferative activity against human HOP62 cells assessed as cell viability at 10^-5 M incubated for 48 hrs by sulforhodamine B assay relative to control; conditions: HOP-62, 48 h, read-out: Activity

| Structure (SMILES) | viability at 10 µM (ACHN) | viability at 10 µM (SF-268) | viability at 10 µM (SK-MEL-2) | viability at 10 µM (OVCAR-3) | viability at 10 µM (DU-145) | viability at 10 µM (TK-10) | viability at 10 µM (NCI-H226) | viability at 10 µM (OVCAR-8) | viability at 10 µM (NCI/ADR-RES) | viability at 10 µM (SNB-75) | viability at 10 µM (M14) | viability at 10 µM (IGROV-1) | viability at 10 µM (RPMI-8226) | viability at 10 µM (Hs-578T) | viability at 10 µM (MCF7) | viability at 10 µM (EKVX) | viability at 10 µM (SW-620) | viability at 10 µM (HL-60(TB)) | viability at 10 µM (PC-3) | viability at 10 µM (NCI-H522) | other results |
| --- | --- | --- | --- | --- | --- | --- | --- | --- | --- | --- | --- | --- | --- | --- | --- | --- | --- | --- | --- | --- | --- |
| CCCOc1cc2c(cc1OCC)C1CC(O)C(O)C(O)C1NC2=O (racemic) | 107% | 97.6% | 105% | 112% | 110% | 99% | 99.6% | 104% | 105% | 95.3% | 103% | 103% | 104% | 96.9% | 99% | 104% | 101% | 101% | 97.1% | 96.7% | viability at 10 µM (MDA-MB-435): 105%; viability at 10 µM (SR): 116%; viability at 10 µM (SF-295): 102%; viability at 10 µM (SN12C): 112%; viability at 10 µM (MOLT-4): 104%; viability at 10 µM (HCC 2998): 106%; viability at 10 µM (T47D): 105%; viability at 10 µM (UO-31): 88.9%; viability at 10 µM (KM12): 108%; viability at 10 µM (NCI-H322M): 104%; viability at 10 µM (CCRF-CEM): 107%; viability at 10 µM (SF-539): 99.2%; viability at 10 µM (HOP-62): 104% |
| CCOc1cc2c(cc1OCC)C1CC(O)C(O)C(O)C1NC2=O (racemic) | 101% | 97.9% | 100% | 107% | 106% | 118% | 97.8% | 97.9% | 101% | 98.9% | 99.1% | 107% | 102% | 99.6% | 94.4% | 102% | 99.4% | 94.5% | 92.8% | 89.5% | viability at 10 µM (MDA-MB-435): 109%; viability at 10 µM (SR): 91.2%; viability at 10 µM (SF-295): 94.9%; viability at 10 µM (SN12C): 100%; viability at 10 µM (MOLT-4): 96.5%; viability at 10 µM (HCC 2998): 106%; viability at 10 µM (T47D): 90.2%; viability at 10 µM (UO-31): 76.4%; viability at 10 µM (KM12): 104%; viability at 10 µM (NCI-H322M): 95.2%; viability at 10 µM (CCRF-CEM): 102%; viability at 10 µM (SF-539): 98%; viability at 10 µM (HOP-62): 99.2% |
| CCOc1c(OC)cc2c(c1O)C(=O)NC1C2CC(O)C(O)C1O (racemic) | 103% | 102% | 106% | 102% | 109% | 93.9% | 99.8% | 101% | 110% | 93.5% | 105% | 102% | 103% | 100% | 92.1% | 98% | 107% | 100% | 100% | 92.3% | viability at 10 µM (MDA-MB-435): 108%; viability at 10 µM (SR): 89.2%; viability at 10 µM (SF-295): 102%; viability at 10 µM (SN12C): 104%; viability at 10 µM (MOLT-4): 92.4%; viability at 10 µM (HCC 2998): 102%; viability at 10 µM (T47D): 92.8%; viability at 10 µM (UO-31): 92.9%; viability at 10 µM (KM12): 104%; viability at 10 µM (NCI-H322M): 103%; viability at 10 µM (CCRF-CEM): 103%; viability at 10 µM (SF-539): 97.7%; viability at 10 µM (HOP-62): 98.6% |
